Test results as given in ChEMBL document CHEMBL4627268, “Development of a potent and orally active activator of adenosine monophosphate-activated protein kinase (AMPK), ASP4132, as a clinical candidate for the treatment of human cancer” (Bioorg Med Chem, 2020).

Assays:
[1] = Intrinsic clearance in human liver microsomes at 0.1 to 0.2 umol/L incubated for 30 mins in presence of NADPH by LC-MS/MS analysis; format: ADME, Microsome; conditions: read-out: CLH
[2] = Oral bioavailability in Sprague-Dawley rat at 1 mg/kg by LC-MS/MS analysis; format: ADME, organism-based; conditions: in vivo
[3] = AUC (0 to 24 hrs) in Sprague-Dawley rat at 1 mg/kg, iv by LC-MS/MS analysis; format: ADME, organism-based; design: time < 24 hr, dose 1 mg/kg, route intravenous; conditions: in vivo
[4] = Total clearance in Sprague-Dawley rat at 1 mg/kg, iv by LC-MS/MS analysis; format: ADME, organism-based; conditions: in vivo
[5] = AUC (0 to 24 hrs) in Sprague-Dawley rat at 1 mg/kg, po by LC-MS/MS analysis; format: ADME, organism-based; design: time < 24 hr, dose 1 mg/kg, route oral; conditions: in vivo
[6] = Cmax in Sprague-Dawley rat at 1 mg/kg, po by LC-MS/MS analysis; format: ADME, organism-based; design: dose 1 mg/kg, route oral; conditions: in vivo
[7] = Elimination half-life in Sprague-Dawley rat at 1 mg/kg, iv by LC-MS/MS analysis; format: ADME, organism-based; conditions: in vivo, read-out: beta t1/2 (converted)
[8] = Tmax in Sprague-Dawley rat at 1 mg/kg, po by LC-MS/MS analysis; format: ADME, organism-based; conditions: in vivo
[9] = Volume of distribution at steady state in Sprague-Dawley rat at 1 mg/kg, iv by LC-MS/MS analysis; format: ADME, organism-based; conditions: in vivo, read-out: Vdss
[10] = Drug metabolism in Sprague-Dawley rat hepatocytes assessed as esterase-mediated anilide hydrolysis; format: ADME, cell-based; conditions: isolated protein

Structure (SMILES)	CLint scaled [1]	bioavailability [2]	AUC(0-t) at 24 h [3]	clearance [4]	AUC(0-t) at 24 h [5]	Cmax [6]	half-life [7]	Tmax [8]	Vd [9]	Drug metabolism [10]
O=C(Nc1ccc(C(=O)N2CCN(Cc3ccc(C(F)(F)F)cc3)CC2)cc1)N1CCN(Cc2ccc(C(F)(F)F)cc2)CC1	158 mL/min/kg	–	–	–	–	–	–	–	–	–
COc1ccc(CN2CCC(c3ccc4[nH]c(C(=O)N5CCN(Cc6ccc(C(F)(F)F)cc6)CC5)nc4c3)CC2)cn1.Cc1ccc(S(=O)(=O)O)cc1.Cc1ccc(S(=O)(=O)O)cc1	61 mL/min/kg	80%	887 ng·h/mL	19 mL/min/kg	705 ng·h/mL	72 ng/mL	216 min	1.7 h	4.6 L/kg	–
COc1ccc(CN2CCN(C(=O)Nc3ccc(C(=O)N4CCN(Cc5ccc(C(F)(F)F)cc5)CC4)cc3)CC2)cc1	185 mL/min/kg	–	–	–	–	–	–	–	–	–
COc1ccc(CN2CCC(C(=O)Nc3ccc(C(=O)N4CCN(Cc5ccc(C(F)(F)F)cc5)CC4)cc3)CC2)cn1	77 mL/min/kg	11%	123 ng·h/mL	137 mL/min/kg	13.3 ng·h/mL	1.9 ng/mL	210 min	0.5 h	50.9 L/kg	Metabolite_Detected
